Legend:
[1] = molecular target: lactate dehydrogenase 5 (LDH-5) (Homo sapiens, UniProt P00338); settings: in neurons; cited from earlier work
[2] = molecular target: lactate dehydrogenase 1 (LDH-1) (Homo sapiens, UniProt P07195); settings: in neurons; cited from earlier work
CYP3A4 = CYP3A4 (Homo sapiens, UniProt P08684); settings: cited from earlier work
[3] = system: rats exposed to ethylene glycol; test: murine model of ethylene glycol poisoning; format: in vivo, rat
Description: A murine model of ethylene glycol poisoning has been prepared by giving 6 g/kg ethylene glycol orally once to twelve adult Sprague-Dawley rats (single oral administration).
Rats have been sacrificed 48 hours after ethylene glycol intake, blood and urine parameters have been collected and kidneys have been removed for histopathological analyses.

[4] = system: uptake of gamma-aminobutyric acid (GABA); settings: cited from earlier work
CYP1A2 = CYP1A2 (Homo sapiens, UniProt P05177); settings: cited from earlier work
[5] = system: calcium-oxalate kidney stone murine model; test: calcium-oxalate kidney stone murine model (calcium chloride and hydroxyproline in drinking water); format: in vivo, rat; settings: Stiripentol 4 g/L in drinking water (about 150 mg/Kg), 4 months, versus controls
Source text: A calcium-oxalate kidney stone murine model has been generated. […] The rats have been exposed for 4 month to this diet. […] Rats have been sacrificed at the end of the protocol and kidneys have been removed for analyses.

Chain of lactate dehydrogenase 1 (LDH-1) (P07195 2-334 limits assumed): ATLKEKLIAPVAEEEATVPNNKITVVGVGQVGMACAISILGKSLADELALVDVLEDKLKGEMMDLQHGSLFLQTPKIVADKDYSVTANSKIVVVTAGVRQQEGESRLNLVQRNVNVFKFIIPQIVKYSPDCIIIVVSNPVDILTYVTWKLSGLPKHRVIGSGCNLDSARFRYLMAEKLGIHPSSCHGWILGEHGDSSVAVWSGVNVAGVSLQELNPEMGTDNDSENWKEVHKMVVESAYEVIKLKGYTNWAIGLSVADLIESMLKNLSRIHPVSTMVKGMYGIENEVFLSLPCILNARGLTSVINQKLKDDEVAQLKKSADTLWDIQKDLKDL
Chain of CYP3A4 (P08684 whole entry): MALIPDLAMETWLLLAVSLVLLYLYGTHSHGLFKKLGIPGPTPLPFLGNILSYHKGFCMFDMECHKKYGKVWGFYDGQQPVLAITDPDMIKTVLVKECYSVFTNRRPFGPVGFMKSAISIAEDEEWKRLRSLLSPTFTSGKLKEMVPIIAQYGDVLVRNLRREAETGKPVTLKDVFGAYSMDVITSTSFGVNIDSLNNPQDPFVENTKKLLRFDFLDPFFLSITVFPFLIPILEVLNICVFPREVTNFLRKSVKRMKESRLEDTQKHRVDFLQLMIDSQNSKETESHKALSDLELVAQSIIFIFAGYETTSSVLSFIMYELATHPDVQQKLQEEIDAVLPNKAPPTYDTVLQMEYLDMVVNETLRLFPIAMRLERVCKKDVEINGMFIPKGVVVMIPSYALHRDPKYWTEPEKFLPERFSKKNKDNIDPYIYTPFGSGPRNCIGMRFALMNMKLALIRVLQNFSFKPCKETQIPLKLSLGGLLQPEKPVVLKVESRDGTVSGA
Chain of CYP1A2 (P05177 whole entry): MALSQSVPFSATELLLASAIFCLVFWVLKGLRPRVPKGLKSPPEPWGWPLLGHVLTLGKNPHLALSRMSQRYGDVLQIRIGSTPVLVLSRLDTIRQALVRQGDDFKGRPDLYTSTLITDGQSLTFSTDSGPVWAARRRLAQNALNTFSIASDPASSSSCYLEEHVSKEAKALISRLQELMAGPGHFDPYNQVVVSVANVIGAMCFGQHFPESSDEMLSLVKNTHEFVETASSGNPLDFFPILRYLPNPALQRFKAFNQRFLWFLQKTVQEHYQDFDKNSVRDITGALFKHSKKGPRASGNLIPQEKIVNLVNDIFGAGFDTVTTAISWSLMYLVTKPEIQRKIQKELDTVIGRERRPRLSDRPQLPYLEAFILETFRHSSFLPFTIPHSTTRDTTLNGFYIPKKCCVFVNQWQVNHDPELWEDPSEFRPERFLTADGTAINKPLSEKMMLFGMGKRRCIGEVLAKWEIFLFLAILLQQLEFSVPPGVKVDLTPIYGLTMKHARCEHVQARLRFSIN

Structure (SMILES)	inhibition of pyruvate to lactate conversion by LDH-5 [1]	inhibition of pyruvate to lactate conversion by LDH-1 [2]	inhibition of CYP3A4 (CYP3A4)	calcium oxalate crystals in kidneys (histopathology, kidney section coverage) ([3]; 6 g/kg ethylene glycol orally once, Stiripentol 300 mg/kg at intoxication and 4 g/L in drinking water days 1 and 2, 48 hours, p=0.0046)	urinary oxalate excretion induced by ethylene glycol poisoning ([3]; Stiripentol at therapeutic range)	renal function assessed by serum creatinine levels ([3]; ethylene glycol intoxicated rats, Stiripentol 300 mg/kg then 4 g/L in drinking water, 48 hours, p=0.009)	inhibition of the uptake of GABA [4]	inhibition of CYP1A2 (CYP1A2)	calcium oxalate crystals in urine [5]	renal function assessed by serum creatinine levels ([5]; p=0.002)
C/C=C/c1ccc2c(c1)OCO2 [Isosafrole, 3,4-methylenedioxyphenyl-1-propene]	inhibit	inhibit								
CC(C)(C)C(O)/C=C/c1ccc2c(c1)OCO2 (racemic) [Stiripentol, 4,4-dimethyl-1-[(3,4-methylenedioxy)-phenyl]-1-penten-3-ol]		inhibit	inhibitor	much less crystals	decreases urinary oxalate excretion	remarkably less impaired	inhibits	inhibitor	less calcium oxalate crystals in urine	preserved renal function
